Measurements as given in patent publication US4705777A, “Cationic oligopeptides having microbicidal activity” (priority 1985, dated 1987).

Tests used:
[1] = tested on: Staphylococcus aureus 502A; assay: Bactericidal activity of human neutrophil peptides, S. aureus; type: cell-based; conditions: comparison to Table VI
E. coli ML-35 = assay: Bactericidal activity of human neutrophil peptides, E. coli ML-35; type: cell-based; conditions: comparison to Table VI
[2] = tested on: Cryptococcus neoformans C-384 (Type C); assay: Antifungal assay of human neutrophil peptides; type: cell-based; conditions: comparison to Table VI
S. albus = assay: Antibacterial action, % killing (Table II), S. albus; type: cell-based, Staphylococcus albus; conditions: 50 μg/ml peptide, 10^7 bacterial cells/ml, 20 min, 37°
Procedure: (§1) To test antibacterial action of the polypeptides, the following protocol was employed. Various species at 10^7 bacterial cells/ml are incubated for 20 min at 37° with 50 μg/ml of the candidate peptide. Colony counts (viable organisms) are made at the outset of the incubation--beforeaddition of the candidate peptide--and after 20 min of incubation with the candidate peptide.

S. aureus 502A = assay: Antibacterial action, % killing (Table II), S. aureus 502A; type: cell-based, Staphylococcus aureus; conditions: 50 μg/ml peptide, 10^7 bacterial cells/ml, 20 min, 37°
Procedure: as §1

L. monocytogenes = assay: Antibacterial action, % killing (Table II), L. monocytogenes; type: cell-based, Listeria monocytogenes; conditions: 50 μg/ml peptide, 10^7 bacterial cells/ml, 20 min, 37°
Procedure: as §1

E. coli = assay: Antibacterial action, % killing (Table II), E. coli; type: cell-based, Escherichia coli; conditions: 50 μg/ml peptide, 10^7 bacterial cells/ml, 20 min, 37°
Procedure: as §1

Ps. aeruginosa = assay: Antibacterial action, % killing (Table II), Ps. aeruginosa; type: cell-based, Pseudomonas aeruginosa; conditions: 50 μg/ml peptide, 10^7 bacterial cells/ml, 20 min, 37°
Procedure: as §1

Streptococcus Group B = assay: Antibacterial action, % killing (Table II), Streptococcus Group B; type: cell-based; conditions: 50 μg/ml peptide, 10^7 bacterial cells/ml, 20 min, 37°
Procedure: as §1

[3] = tested on: Staphylococcus aureus 566; assay: Antibacterial activity of rabbit granulocyte peptides (Table III), S. aureus 566; type: cell-based; conditions: 50 μg/ml, 20 min, 37° C., 10 mM sodium phosphate buffer pH 7.4
Procedure: (§2) The procedure parallels that reported in Lehrer et al., Infection and Immunity (1983) 42:10-14. […] The subculture was grown at 37° C. for 4 h with shaking to provide mid-logarithmic phase organisms that were washed twice with buffer by centrifugation (2000×g, 10 min), and then quantitated spectrophotometrically at 620 nm, with reference to previously established CFU/Optical Density relationships. Bacteria were suspended and experiments were performed in 10 mM sodium phosphate buffer, pH 7.4. In some experiments, buffers were supplemented with 0.14 M NaCl ("high" ionic strength). […] In some experiments, 10 mM phosphate buffer with a pH of 5.8 and conductivity of 1.36 mMHO was used. Peptide "stock solutions" were prepared at 500 μg/ml (microbiuret assay) in 0.01% acetic acid, and stored at -20° C. Typically, incubation mixtures contained 1×10^5 bacterial CFU and 5 μg of peptide in 100 μl of buffer. After incubation for 20 min at 37° C., 900 μl of the same buffer was added, and two additional serial tenfold dilutions were made with that buffer. Duplicate 100 μl aliquots from the three serial dilutions were spread over appropriate nutrient agar plates and incubated for 24-72 h to insure full colony development. Killing of microorganisms was expressed as the logarithm10 No /N, where No represented the initial colony count and N represented the colony count after incubation with peptide. There was no significant alteration in colony count when any of the test organisms were exposed to peptide-free buffer for 20 min.

[4] = tested on: Staphylococcus aureus 502A; assay: Antibacterial activity of rabbit granulocyte peptides (Table III), S. aureus 502A; type: cell-based; conditions: 50 μg/ml, 20 min, 37° C., 10 mM sodium phosphate buffer pH 7.4
Procedure: as §2

[5] = tested on: Staphylococcus aureus J.F.; assay: Antibacterial activity of rabbit granulocyte peptides (Table III), S. aureus J.F.; type: cell-based; conditions: 50 μg/ml, 20 min, 37° C., 10 mM sodium phosphate buffer pH 7.4
Procedure: as §2

[6] = tested on: Staphylococcus epidermidis UCLA-622; assay: Antibacterial activity of rabbit granulocyte peptides (Table III), S. epidermidis; type: cell-based; conditions: 50 μg/ml, 20 min, 37° C., 10 mM sodium phosphate buffer pH 7.4
Procedure: as §2

[7] = tested on: Streptococcus pneumoniae Type III; assay: Antibacterial activity of rabbit granulocyte peptides (Table III), S. pneumoniae; type: cell-based; conditions: 50 μg/ml, 20 min, 37° C., 10 mM sodium phosphate buffer pH 7.4
Procedure: as §2

[8] = tested on: Streptococcus agalactiae Type-I-A; assay: Antibacterial activity of rabbit granulocyte peptides (Table III), S. agalactiae Type-I-A; type: cell-based; conditions: 50 μg/ml, 20 min; for Bactericidal activity log10 No /N, Streptococcus agalactiae Type 1A, pH 5.8: 10 mM phosphate buffer pH 5.8; for Bactericidal activity log10 No /N, Streptococcus agalactiae Type-I-A: 37° C., 10 mM sodium phosphate buffer pH 7.4; for Bactericidal activity log10 No /N, Streptococcus agalactiae Type 1A, "High" ionic strength: buffer pH 7.4 supplemented with 0.14 M NaCl
Procedure: as §2

[9] = tested on: Streptococcus agalactiae Type IIIU; assay: Antibacterial activity of rabbit granulocyte peptides (Table III), S. agalactiae Type IIIU; type: cell-based; conditions: 50 μg/ml, 20 min, 37° C., 10 mM sodium phosphate buffer pH 7.4
Procedure: as §2

[10] = tested on: Listeria monocytogenes 450; assay: Antibacterial activity of rabbit granulocyte peptides (Table III), L. monocytogenes; type: cell-based; conditions: 50 μg/ml, 20 min; for Bactericidal activity log10 No /N, Listeria monocytogenes 450, pH 5.8: 10 mM phosphate buffer pH 5.8; for Bactericidal activity log10 No /N, Listeria monocytogenes 450: 37° C., 10 mM sodium phosphate buffer pH 7.4; for Bactericidal activity log10 No /N, Listeria monocytogenes 450, "High" ionic strength: buffer pH 7.4 supplemented with 0.14 M NaCl
Procedure: as §2

[11] = tested on: Pseudomonas aeruginosa PAO 579; assay: Antibacterial activity of rabbit granulocyte peptides (Table III), P. aeruginosa; type: cell-based; conditions: 50 μg/ml, 20 min; for Bactericidal activity log10 No /N, Pseudomonas aeruginosa PAO 579, pH 5.8: 10 mM phosphate buffer pH 5.8; for Bactericidal activity log10 No /N, Pseudomonas aeruginosa PAO 579: 37° C., 10 mM sodium phosphate buffer pH 7.4; for Bactericidal activity log10 No /N, Pseudomonas aeruginosa PAO 579, "High" ionic strength: buffer pH 7.4 supplemented with 0.14 M NaCl
Procedure: as §2

[12] = tested on: Escherichia coli ATCC 29648; assay: Antibacterial activity of rabbit granulocyte peptides (Table III), E. coli; type: cell-based; conditions: 50 μg/ml, 20 min, 37° C., 10 mM sodium phosphate buffer pH 7.4
Procedure: as §2

[13] = tested on: Klebsiella pneumoniae ATCC 13883; assay: Antibacterial activity of rabbit granulocyte peptides (Table III), K. pneumoniae; type: cell-based; conditions: 50 μg/ml, 20 min; for Bactericidal activity log10 No /N, Klebsiella pneumoniae ATCC 13883, pH 5.8: 10 mM phosphate buffer pH 5.8; for Bactericidal activity log10 No /N, Klebsiella pneumoniae ATCC 13883: 37° C., 10 mM sodium phosphate buffer pH 7.4; for Bactericidal activity log10 No /N, Klebsiella pneumoniae ATCC 13883, "High" ionic strength: buffer pH 7.4 supplemented with 0.14 M NaCl
Procedure: as §2

Serratia marcescens = assay: Antibacterial activity of rabbit granulocyte peptides (Table III), S. marcescens; type: cell-based; conditions: 50 μg/ml, 20 min, 37° C., 10 mM sodium phosphate buffer pH 7.4
Procedure: as §2

[14] = tested on: Hemophilus influenzae Type 3A; assay: Antibacterial activity of rabbit granulocyte peptides (Table III), H. influenzae; type: cell-based; conditions: 50 μg/ml, 20 min, 37° C., 10 mM sodium phosphate buffer pH 7.4
Procedure: as §2

[15] = tested on: Bordetella bronchiseptica UCLA-342; assay: Antibacterial activity of rabbit granulocyte peptides (Table III), B. bronchiseptica; type: cell-based; conditions: 50 μg/ml, 20 min, 37° C., 10 mM sodium phosphate buffer pH 7.4
Procedure: as §2

H. influenzae = assay: Antibacterial action, % killing (Table II), H. influenzae; type: cell-based, Haemophilus influenzae; conditions: 50 μg/ml peptide, 10^7 bacterial cells/ml, 20 min, 37°
Procedure: as §1

K. pneumoniae = assay: Antibacterial action, % killing (Table II), K. pneumoniae; type: cell-based, Klebsiella pneumoniae; conditions: 50 μg/ml peptide, 10^7 bacterial cells/ml, 20 min, 37°
Procedure: as §1

S. marscescens = assay: Antibacterial action, % killing (Table II), S. marscescens; type: cell-based, Serratia marscescens; conditions: 50 μg/ml peptide, 10^7 bacterial cells/ml, 20 min, 37°
Procedure: as §1

Substance | % Killing, S. albus (S. albus) | % Killing, S. aureus 502A (S. aureus 502A) | % Killing, L. monocytogenes (L. monocytogenes) | % Killing, E. coli (E. coli) | % Killing, Ps. aeruginosa (Ps. aeruginosa) | Bactericidal activity log10 No /N, Staphylococcus aureus 566 [3] [log10] | Bactericidal activity log10 No /N, Staphylococcus aureus 502A [4] [log10] | Bactericidal activity log10 No /N, Staphylococcus aureus J.F. [5] [log10] | Bactericidal activity log10 No /N, Staphylococcus epidermidis UCLA-622 [6] [log10] | Bactericidal activity log10 No /N, Streptococcus pneumoniae Type III [7] [log10] | Bactericidal activity log10 No /N, Streptococcus agalactiae Type 1A, pH 5.8 [8] [log10] | Bactericidal activity log10 No /N, Streptococcus agalactiae Type-I-A [8] [log10] | Bactericidal activity log10 No /N, Streptococcus agalactiae Type 1A, "High" ionic strength [8] [log10] | Bactericidal activity log10 No /N, Streptococcus agalactiae Type IIIU [9] [log10] | Bactericidal activity log10 No /N, Listeria monocytogenes 450, pH 5.8 [10] [log10] | Bactericidal activity log10 No /N, Listeria monocytogenes 450 [10] [log10] | Bactericidal activity log10 No /N, Listeria monocytogenes 450, "High" ionic strength [10] [log10] | Bactericidal activity log10 No /N, Pseudomonas aeruginosa PAO 579, pH 5.8 [11] [log10] | Bactericidal activity log10 No /N, Pseudomonas aeruginosa PAO 579 [11] [log10] | Bactericidal activity log10 No /N, Pseudomonas aeruginosa PAO 579, "High" ionic strength [11] [log10] | further results
asp cys tyr cys arg ile pro ala cys ile ala gly glu arg arg tyr gly thr cys ile tyr gln gly arg leu trp ala phe cys cys [HNP-3] |  |  |  |  |  |  |  |  |  |  |  |  |  |  |  |  |  |  |  |  | microbicidal activity compared with the other HNP, S. aureus 502A [1]: less microbicidal than the other oligopeptides; microbicidal activity compared with the other HNP, E. coli ML-35 (E. coli ML-35): less microbicidal than the other oligopeptides; microbicidal activity compared with the other HNP, C. neoformans C-384 [2]: less microbicidal than the other oligopeptides
val val cys ala cys arg arg ala leu cys leu pro leu glu arg arg ala gly phe cys arg ile arg gly arg ile his pro leu cys cys arg arg [NP-2] | B (90-99% killing) | D (<50% killing) | A (>99% killing) | B (90-99% killing) | A (>99% killing) | > 4.1 | 2.4 | 2.9 | > 4.1 | > 3.5 | 0.1 | 2.0 | 0.1 | 2.9 | 0.1 | 2.1 | 0.2 | 0.2 | 3.2 | 0.0 | % Killing, Streptococcus Group B (Streptococcus Group B): C (50-90% killing); Bactericidal activity log10 No /N, Escherichia coli ATCC 29648 [12]: 0.8 log10; Bactericidal activity log10 No /N, Klebsiella pneumoniae ATCC 13883, pH 5.8 [13]: 0.5 log10; Bactericidal activity log10 No /N, Klebsiella pneumoniae ATCC 13883 [13]: 1.1 log10; Bactericidal activity log10 No /N, Klebsiella pneumoniae ATCC 13883, "High" ionic strength [13]: 0.0 log10; Bactericidal activity log10 No /N, Serratia marcescens (Serratia marcescens): 1.0 log10; Bactericidal activity log10 No /N, Hemophilus influenzae Type 3A [14]: 2.0 log10; Bactericidal activity log10 No /N, Bordetella bronchiseptica UCLA-342 [15]: 0.1 log10
gly ile cys ala cys arg arg arg phe cys pro asn ser glu arg phe ser gly tyr cys arg val asn gly ala arg tyr val arg cys cys ser arg arg [NP-3a] | D (<50% killing) | D (<50% killing) | D (<50% killing) | D (<50% killing) | A (>99% killing) | 1.3 | 0.0 | 0.4 | 1.3 | > 3.5 | 0.0 | 0.6 | 0.0 | 0.3 | 0.0 | 0.2 | 0.1 | 0.1 | 3.2 | 0.1 | % Killing, H. influenzae (H. influenzae): B (90-99% killing); % Killing, K. pneumoniae (K. pneumoniae): A (>99% killing); % Killing, S. marscescens (S. marscescens): C (50-90% killing); Bactericidal activity log10 No /N, Escherichia coli ATCC 29648 [12]: 0.6 log10; Bactericidal activity log10 No /N, Klebsiella pneumoniae ATCC 13883, pH 5.8 [13]: 0.4 log10; Bactericidal activity log10 No /N, Klebsiella pneumoniae ATCC 13883 [13]: 2.4 log10; Bactericidal activity log10 No /N, Klebsiella pneumoniae ATCC 13883, "High" ionic strength [13]: 0.0 log10; Bactericidal activity log10 No /N, Serratia marcescens (Serratia marcescens): 0.5 log10; Bactericidal activity log10 No /N, Hemophilus influenzae Type 3A [14]: > 1.1 log10; Bactericidal activity log10 No /N, Bordetella bronchiseptica UCLA-342 [15]: 0.1 log10
